According to US4877727A, “Substrate for determining leucine aminopeptidase or gamma-glutamyltranspeptase activity” (Kyowa Medex Co., Ltd., priority 1984, dated 1989):
In brackets after ≈: the same amount, converted by molar mass. One block for each compound: values may come before it.

Legend:
[1] = tested on: leucine aminopeptidase (LAP); experiment: LAP determination in serum, absorption change per minute (Example 1); assay type: biochemical
Experimental: 3 ml of the reagent solution was incubated at 37° C. for ten minutes. To the solution was added 0.05 ml of a serum sample and the mixture was immediately stirred and the change in absorption of the solution at 745 nm was measured for one minute.
LAP activity in the sample can be calculated using the following equation: [formula] ΔE means the amount of absorption change per minute.
The same procedures as described above were repeated except that the following materials were used. […]

Solubility of substrate = assay type: physicochemical; conditions: read-out: S: Solubility
[2] = Maximum wavelength of formed pigment; assay type: physicochemical
Experimental: 50 μl of 1 mM each free compound was added to 3 ml of 0.1M phosphate buffer containing 0.5 mg/ml EMSE and 1 U/ml laccase and the mixture was incubated at 37° C. for 5 minutes. The absorption of the reaction solution at λmax was measured. As a control, 5-aminosalicylic acid was used and the reaction of the compound with 2,6-xylenol was carried out in the presence of metaperiodate under strong alkaline conditions.

[3] = tested on: leucine aminopeptidase (LAP); experiment: LAP determination in serum, end-point colour reactions (Example 2); assay type: biochemical
Experimental: The reagent solution wherein laccase was excluded from the reagent solution of Example 1 was used.
3 ml of the reagent solution was incubated at 37° C. for 10 minutes and to the mixture was added 0.05 ml of a serum sample. The mixture was immediately stirred and incubated at 37° C. for 10 minutes. After ten minutes passed,
(a) 0.03 ml of 10 mg/ml α-naphthol methanol solution and 0.1 ml of 1N-NaOH solution containing 50 mg/ml sodium salt of meta-periodate were added to the solution. The mixture was incubated at 37° C. for 10 minutes and the absorption of the reaction solution at 600 nm was measured.
(b) 1 ml of 10 mg/ml p-N,N-dimethylamino cinnamaldehyde ethanol solution and 1 ml of 0.4N-HCl solution were added to the solution and the mixture was incubated at 37° C. for 10 minutes. The absorption of the reaction solution at 570 nm was measured.
(c) 0.5 ml of 1N-HCl and 0.5 ml of 1 mg/ml sodium nitrite were added to the solution and the mixture was incubated at 37° C. for 10 minutes. Then 0.1 ml of 1 mg/ml 3,5-xylenol ethanol solution was added thereto and the absorption of the reaction solution at 650 nm was measured.

Stability of pigment = assay type: physicochemical
[4] = target: T1, γ-glutamyltranspeptidase (γ-GTP) (Homo sapiens, UniProt P19440); experiment: γ-GTP determination in serum (Example 3); assay type: biochemical; conditions: found with the compound as substrate; standard serum 235 mU/ml; 37° C., 5 minutes; wavelength of Table 2
T1 construct: from tissue; host or cells: serum
T1 sequence (P19440 1-380 limits assumed): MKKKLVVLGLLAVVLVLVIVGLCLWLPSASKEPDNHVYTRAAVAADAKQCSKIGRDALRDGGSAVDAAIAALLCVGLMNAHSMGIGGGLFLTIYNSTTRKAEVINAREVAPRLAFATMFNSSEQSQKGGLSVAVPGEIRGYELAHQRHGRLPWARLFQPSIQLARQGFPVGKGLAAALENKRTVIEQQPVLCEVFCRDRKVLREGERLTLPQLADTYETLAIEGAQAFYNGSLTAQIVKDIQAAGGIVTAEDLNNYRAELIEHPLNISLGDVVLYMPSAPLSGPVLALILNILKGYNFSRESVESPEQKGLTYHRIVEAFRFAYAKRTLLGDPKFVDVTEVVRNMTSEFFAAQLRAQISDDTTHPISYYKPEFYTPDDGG
T1 sequence (P19440 381-569 limits assumed): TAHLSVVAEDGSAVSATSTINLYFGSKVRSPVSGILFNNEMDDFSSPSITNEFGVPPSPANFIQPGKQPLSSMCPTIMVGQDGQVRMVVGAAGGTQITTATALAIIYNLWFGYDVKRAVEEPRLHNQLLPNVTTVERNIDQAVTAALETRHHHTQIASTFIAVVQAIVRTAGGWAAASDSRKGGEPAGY
Experimental: In this example, 500 mg of compound Nos. 1, 3, 5, 7 and 9 each and 500 mg of glycylglycine were dissolved in 100 ml (pH=7.7) and 0.1M phosphate buffer. The resultant solutions were designated A-1, A-3, A-5, A-7 and A-9, respectively. 50 mg of 3-{N-(m-tolyl)-N-ethyl}amino-2-hydroxypropane sulfonic acid was dissolved in 100 ml of phosphate buffer solution to obtain solution B. 50 mg/ml sodium meta-periodate containing 1N-HCl solution was prepared as solution C.
6 ml of solution A-1, A-3, A-5, A-7 or A-9 was equally poured to 3 test tubes. The samples were incubated at 37° C. and to the solution was added […] of (a) serum sample (b) standard serum or (c) water. The mixtures were stirred and heated for 5 minutes. After 5 minutes had passed, 1 ml of solution B and 1 ml of solution C were added to each of the mixtures and the mixtures were incubated for 10 minutes after stirring. As the standard serum, a serum having 235 mU/ml of γ-GTP was used.
The γ-GTP activity of the serum sample can be calculated by the following equation. [formula]

[5] = Serum(1), 37° C., 745 nm Compound No. 2, 635 nm (a), 565 nm (b), 675 nm (c)

- solubility (Solubility of substrate): > 200 mg/mL
- λmax: Maximum wavelength [2]: 685 nm
- γ-GTP activity of the serum sample [4]: 242 mU/ml
- ST: Stability of pigment (Stability of pigment): > 98%
Structure (SMILES): N[C@@H](CCC(=O)Nc1ccc(N(CCCS(=O)(=O)O)CCCS(=O)(=O)O)c(Cl)c1)C(=O)O [compound 9]

- solubility (Solubility of substrate): 125 mg/mL (≈ 250 mM)
- λmax: Maximum wavelength [2]: 685 nm
- ST: Stability of pigment (Stability of pigment): > 98%
Structure (SMILES): CC(C)C[C@H](N)C(=O)Nc1ccc(N(CCCS(=O)(=O)O)CCCS(=O)(=O)O)c(Cl)c1 [compound 10]

- solubility (Solubility of substrate): > 200 mg/mL
- λmax: Maximum wavelength [2]: 680 nm
- ST: Stability of pigment (Stability of pigment): 93%
Structure (SMILES): CC(C)C[C@H](N)C(=O)Nc1ccc(N(CCCS(=O)(=O)O)CCCS(=O)(=O)O)c(S(=O)(=O)O)c1 [compound 8]

- solubility (Solubility of substrate): > 200 mg/mL
- λmax: Maximum wavelength [2]: 720 nm
- ST: Stability of pigment (Stability of pigment): > 98%
Structure (SMILES): COc1cc(N(CCCCS(=O)(=O)O)CCCCS(=O)(=O)O)c(C)cc1NC(=O)[C@@H](N)CC(C)C [compound 14]

The remaining lines, values behind:

Structure (SMILES): CC(C)C[C@H](N)C(=O)Nc1ccc(O)c(C(=O)O)c1 [(a), L-leucil-3-carboxy-4-hydroxyanilide]
- amount of absorption change per minute ([1]; Serum (2), same wavelengths): 0.0127
- amount of absorption change per minute ([1]; Serum (3), same wavelengths): 0.0198
- amount of absorption change per minute ([1]; Serum (4), same wavelengths): 0.0203
- amount of absorption change per minute ([1]; Serum (5), same wavelengths): 0.0148
- amount of absorption change per minute ([1]; Serum (6), same wavelengths): 0.0158
- amount of absorption change per minute ([1]; Serum (7), same wavelengths): 0.0153
- amount of absorption change per minute ([1]; Serum (8), same wavelengths): 0.0191
- amount of absorption change per minute ([1]; Serum (9), same wavelengths): 0.0190
- amount of absorption change per minute ([1]; Serum (10), same wavelengths): 0.0184
- amount of absorption change per minute [1, 5]: 0.0188

Structure (SMILES): CC(C)C[C@H](N)C(=O)Nc1ccc(N(CCCS(=O)(=O)O)CCCS(=O)(=O)O)cc1 [Compound No. 2, L-leucyl-p-N,N-disulfopropyl aminoanilide]
- solubility (Solubility of substrate): 130 mg/mL (≈ 279 mM)
- λmax: Maximum wavelength [2]: 745 nm
- amount of absorption change per minute ([1]; Serum (2), same wavelengths): 0.0395
- amount of absorption change per minute ([1]; Serum (3), same wavelengths): 0.0543
- amount of absorption change per minute ([1]; Serum (4), same wavelengths): 0.0541
- amount of absorption change per minute ([1]; Serum (5), same wavelengths): 0.0382
- amount of absorption change per minute ([1]; Serum (6), same wavelengths): 0.0437
- amount of absorption change per minute ([1]; Serum (7), same wavelengths): 0.0400
- amount of absorption change per minute ([1]; Serum (8), same wavelengths): 0.0532
- amount of absorption change per minute ([1]; Serum (9), same wavelengths): 0.0537
- amount of absorption change per minute ([1]; Serum (10), same wavelengths): 0.0476
- amount of absorption change per minute [1, 5]: 0.0454
- Ratio of sensitivity ([3]; Example 1 method (EMSE + laccase, 745 nm), reference): 100
- absorption of the reaction solution ([3]; method (a) α-naphthol + meta-periodate/NaOH, 600 nm, Serum 1): 0.331
- absorption of the reaction solution ([3]; method (a), 600 nm, Serum 2): 0.291
- absorption of the reaction solution ([3]; method (a), 600 nm, Serum 3): 0.389
- absorption of the reaction solution ([3]; method (a), 600 nm, Serum 4): 0.395
- absorption of the reaction solution ([3]; method (a), 600 nm, Serum 5): 0.277
- absorption of the reaction solution ([3]; method (a), 600 nm, Serum 6): 0.322
- absorption of the reaction solution ([3]; method (a), 600 nm, Serum 7): 0.291
- absorption of the reaction solution ([3]; method (a), 600 nm, Serum 8): 0.386
- absorption of the reaction solution ([3]; method (a), 600 nm, Serum 9): 0.392
- absorption of the reaction solution ([3]; method (a), 600 nm, Serum 10): 0.346
- Ratio of sensitivity ([3]; method (a), relative to Example 1 = 100): 73
- absorption of the reaction solution ([3]; method (b) p-N,N-dimethylamino cinnamaldehyde/HCl, 570 nm, Serum 1): 0.386
- absorption of the reaction solution ([3]; method (b), 570 nm, Serum 2): 0.336
- absorption of the reaction solution ([3]; method (b), 570 nm, Serum 3): 0.466
- absorption of the reaction solution ([3]; method (b), 570 nm, Serum 4): 0.460
- absorption of the reaction solution ([3]; method (b), 570 nm, Serum 5): 0.320
- absorption of the reaction solution ([3]; method (b), 570 nm, Serum 6): 0.372
- absorption of the reaction solution ([3]; method (b), 570 nm, Serum 7): 0.333
- absorption of the reaction solution ([3]; method (b), 570 nm, Serum 8): 0.453
- absorption of the reaction solution ([3]; method (b), 570 nm, Serum 9): 0.460
- absorption of the reaction solution ([3]; method (b), 570 nm, Serum 10): 0.405
- Ratio of sensitivity ([3]; method (b), relative to Example 1 = 100): 85
- absorption of the reaction solution ([3]; method (c) sodium nitrite/HCl then 3,5-xylenol, 650 nm, Serum 1): 0.277
- absorption of the reaction solution ([3]; method (c), 650 nm, Serum 2): 0.241
- absorption of the reaction solution ([3]; method (c), 650 nm, Serum 3): 0.330
- absorption of the reaction solution ([3]; method (c), 650 nm, Serum 4): 0.325
- absorption of the reaction solution ([3]; method (c), 650 nm, Serum 5): 0.230
- absorption of the reaction solution ([3]; method (c), 650 nm, Serum 6): 0.270
- absorption of the reaction solution ([3]; method (c), 650 nm, Serum 7): 0.244
- absorption of the reaction solution ([3]; method (c), 650 nm, Serum 8): 0.325
- absorption of the reaction solution ([3]; method (c), 650 nm, Serum 9): 0.331
- absorption of the reaction solution ([3]; method (c), 650 nm, Serum 10): 0.292
- Ratio of sensitivity ([3]; method (c), relative to Example 1 = 100): 61
- ST: Stability of pigment (Stability of pigment): > 98%

Structure (SMILES): CCN(CC(O)CS(=O)(=O)O)c1ccc(NC(=O)[C@@H](N)CC(C)C)cc1 (some centres unmarked) [compound 6]
- solubility (Solubility of substrate): 90 mg/mL (≈ 232 mM)
- λmax: Maximum wavelength [2]: 740 nm
- ST: Stability of pigment (Stability of pigment): > 98%

Structure (SMILES): CCN(CC)c1ccc(NC(=O)[C@@H](N)CC(C)C)cc1 [(c), L-leucil-p-N,N-- diethylaminoanilide]
- amount of absorption change per minute ([1]; Serum (2), same wavelengths): 0.0095
- amount of absorption change per minute ([1]; Serum (3), same wavelengths): 0.0150
- amount of absorption change per minute ([1]; Serum (4), same wavelengths): 0.0145
- amount of absorption change per minute ([1]; Serum (5), same wavelengths): 0.0116
- amount of absorption change per minute ([1]; Serum (6), same wavelengths): 0.0126
- amount of absorption change per minute ([1]; Serum (7), same wavelengths): 0.0113
- amount of absorption change per minute ([1]; Serum (8), same wavelengths): 0.0150
- amount of absorption change per minute ([1]; Serum (9), same wavelengths): 0.0138
- amount of absorption change per minute ([1]; Serum (10), same wavelengths): 0.0133
- amount of absorption change per minute [1, 5]: 0.0158
